The values below come from US20240423907A1, “Improved Nasal Administration of Pharmaceutical Formulations” (Cyrano Therapeutics, Inc., priority 2022, published 2024).

The test system of experiment [1] is subject diagnosed with a sinus infection. As to the kind of experiment: Treatment of sinusitis in a subject. The experiment is classed as in vivo. The conditions noted are these: nasal spray device described herein, effective dose 2× daily in each naris. The source says: A subject is admitted to a clinic for nasal congestion, nasal inflammation, facial pain (e.g., pain around the eyes, cheeks, nose and forehead). The subject is diagnosed with a sinus infection. The subject is prescribed a beclomethasone dipropionate composition in a nasal spray device described herein. The subject administers the nasal spray in an effective dose 2× daily in each naris. The nasal spray is characterized by a spray containing a D50 of about 15 μm to about 24 μm, a D90 of from about 30 μm to about 50 μm and where less than about 3% of the droplets in the plume of a spray have a size of less than about 10 μm.

The test system of experiment [2] is subject diagnosed with allergic rhinitis. As to the kind of experiment: Treatment of allergic rhinitis in a subject. The experiment is classed as in vivo. The following applies: nasal spray device described herein, effective dose 1× daily in each naris. From the text: A subject is admitted to a clinic for nasal congestion, sneezing, itchy eyes, and watery eyes. The subject is diagnosed with allergic rhinitis. The subject is prescribed a fluticasone propionate composition in a nasal spray device described herein. The subject administers the nasal spray in an effective dose 1× daily in each naris. The nasal spray is characterized by a spray containing a D50 of about 15 μm to about 24 μm, a D90 of from about 30 μm to about 50 μm, and where less than about 3% of the droplets in the plume of a spray have a size of less than about 10 μm.

For `CCC(=O)OCC(=O)[C@@]1(OC(=O)CC)[C@@H](C)C[C@H]2[C@@H]3CCC4=CC(=O)C=C[C@]4(C)[C@@]3(Cl)[C@@H](O)C[C@@]21C` [beclomethasone dipropionate], in experiment [1], the “symptoms of the sinus infection (pain, nasal inflammation and congestion) after administration” value is on record as “reduced symptoms”. On to `CCC(=O)O[C@]1(C(=O)SCF)[C@H](C)C[C@H]2[C@@H]3C[C@H](F)C4=CC(=O)C=C[C@]4(C)[C@@]3(F)[C@@H](O)C[C@@]21C` [fluticasone propionate], for which the “symptoms of allergic rhinitis (sneezing, itchy eyes, nasal congestion, watery eyes) after administration” value in experiment [2] is “reduced symptoms”.
